The source of these data is PubChem BioAssay (NCI).

Structures are written as SMILES. “And” between values parts separate entries of the source, which are not always exact repeats. Equal values may be shown once.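 48-hour exposure; five concentrations; linearly interpolated endpoints. GI50 marks 50% less growth. TGI is the concentration that stops growth completely.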

Some test systems named below: HCT-15 colon; DMS 273 small cell lung; M19-MEL melanoma; SK-MEL-28 melanoma; HOP-62 NSCLC; SNB-78 CNS; HCC-2998 colon; XF 498 CNS; HL-60(TB) leukemia.
What all share (test): DTP human tumour cell line panel, 48 h

Take `O=C(N/C(=C\c1cccc([N+](=O)[O-])c1)c1nc2ccccc2[nH]1)c1ccccc1`: the total growth inhibition concentration (TGI) was above 100 µM in the assay on HCT-15 colon; above 100 µM in the assay on DMS 273 small cell lung; above 100 µM in the assay with M19-MEL melanoma; 68.9 µM with SK-MEL-28 melanoma; above 100 µM with HOP-62 NSCLC; above 100 µM in the assay with SNB-78 CNS. The values for the TGI in the assay on HCC-2998 colon and in the assay on XF 498 CNS were above 100 µM and 87.5 µM, respectively.
`CSc1ccc2c(cc1=O)[C@@H](NC(=O)c1ccc(Cl)cc1)CCc1cc(O)c(O)c(O)c1-2`: the TGI was 51.7 µM in the assay with HCT-15 colon; above 100 µM in the assay with HL-60(TB) leukemia; above 100 µM in the assay with DMS 273 small cell lung; above 100 µM in the assay with M19-MEL melanoma; above 100 µM with SK-MEL-28 melanoma; above 100 µM in the assay on HOP-62 NSCLC. The TGI in the assay with SNB-78 CNS and in the assay with HCC-2998 colon was above 100 µM each time.
On to `CCOC(=O)C(CCC(N)=O)(CCC(=O)OC)C(=O)OCC`, for which the TGI in the assay on HL-60(TB) leukemia, in the assay with DMS 273 small cell lung, in the assay on M19-MEL melanoma, in the assay with SK-MEL-28 melanoma, in the assay on HOP-62 NSCLC and in the assay with SNB-78 CNS was above 100 µM in each case. Besides, the TGI with HCC-2998 colon and in the assay on XF 498 CNS was above 100 µM each time.
Regarding `N#CCC(=O)N/N=C1/C(=O)N(c2cc(Cl)ccc2Cl)C(=O)C(=O)C1c1nc2ccccc2s1` (configuration not stated), the TGI with HCT-15 colon, in the assay on HL-60(TB) leukemia, in the assay on DMS 273 small cell lung, in the assay with M19-MEL melanoma, in the assay with SK-MEL-28 melanoma and with HOP-62 NSCLC was above 100 µM throughout. Also, the TGI in the assay on SNB-78 CNS and with HCC-2998 colon was above 100 µM each time.
For `COC(=O)[C@@]1(C)C(=O)CC[C@@H]1C=O`, the TGI in the assay with HCT-15 colon, with HL-60(TB) leukemia, in the assay with M19-MEL melanoma, with HOP-62 NSCLC, with SNB-78 CNS and with XF 498 CNS was above 100 µM in each case.
Regarding `CCOc1cn(C2OC(CO)C(O)C2O)c(=O)[nH]c1=O` (configuration not stated), the TGI with HCT-15 colon, in the assay on HL-60(TB) leukemia, in the assay on DMS 273 small cell lung, in the assay on M19-MEL melanoma, in the assay on SK-MEL-28 melanoma and with HOP-62 NSCLC was above 100 µM in each case. The TGI in the assay with SNB-78 CNS and with HCC-2998 colon was above 100 µM throughout.
Turning to `O=C(CCc1ccccc1)NS(=O)(=O)c1ccccc1`, the TGI in the assay with HL-60(TB) leukemia, with M19-MEL melanoma, in the assay with SK-MEL-28 melanoma, with HOP-62 NSCLC, in the assay with HCC-2998 colon and in the assay on XF 498 CNS was above 100 µM throughout.
As to `CCOC(=O)C1=C(C)NC2=C(C(=O)N(c3ccccc3)C2c2ccccc2)C1c1ccccc1` (configuration not stated), the TGI with HCT-15 colon was 32.2 µM; with HL-60(TB) leukemia, 81.2 µM; in the assay with M19-MEL melanoma, 32.3 µM; in the assay on SK-MEL-28 melanoma it was 34.8 µM; in the assay on HOP-62 NSCLC, 33.4 µM; in the assay on SNB-78 CNS, 45.3 µM. Besides, the TGI with HCC-2998 colon worked out at 31.7 µM; with XF 498 CNS, 37.5 µM.
For `CC(C)(C)C(=O)Nc1cccc2oc(-c3ccccc3)cc12`, the TGI in the assay on HCT-15 colon, in the assay on HL-60(TB) leukemia, in the assay on DMS 273 small cell lung, in the assay with M19-MEL melanoma, in the assay on SK-MEL-28 melanoma and in the assay on HOP-62 NSCLC was above 100 µM each time. Also, the TGI in the assay with SNB-78 CNS and with HCC-2998 colon was above 100 µM throughout.
Consider `O=C(OCCCl)C1OC(n2cc(F)c(=O)[nH]c2=O)CC1O` (configuration not stated), for which the TGI with HCT-15 colon, with HL-60(TB) leukemia, in the assay with M19-MEL melanoma, in the assay with SK-MEL-28 melanoma, with HOP-62 NSCLC and in the assay on SNB-78 CNS was above 100 µM throughout. Further, the TGI with HCC-2998 colon and with XF 498 CNS was above 100 µM each time.
Turning to `C[C@@H](NS(=O)(=O)c1ccc(NC(=O)c2ccccc2)cc1)C(=O)O`, the TGI in the assay on HCT-15 colon, in the assay with HL-60(TB) leukemia, in the assay with DMS 273 small cell lung, in the assay with M19-MEL melanoma, with SK-MEL-28 melanoma and in the assay with HCC-2998 colon was above 100 µM in each case. In the assay with XF 498 CNS, this compound displayed a TGI above 100 µM.
As to `CC(C)(C)c1cc(CCCCCCCC2(CCCCCCCc3cc(C(C)(C)C)cc(C(C)(C)C)c3)OC(COCCOCCCCCC#N)C(COCCOCCCCCC#N)O2)cc(C(C)(C)C)c1` (configuration not stated), the TGI with HCT-15 colon, in the assay with HL-60(TB) leukemia, in the assay on DMS 273 small cell lung, in the assay on M19-MEL melanoma, with SK-MEL-28 melanoma and in the assay on HOP-62 NSCLC was above 100 µM in each case. The TGI with SNB-78 CNS and in the assay with HCC-2998 colon was above 100 µM throughout.
`CN(C)CCC(CCN(C)C)=NO`: the TGI in the assay with HCT-15 colon, with HL-60(TB) leukemia, in the assay on DMS 273 small cell lung, in the assay with M19-MEL melanoma, with SK-MEL-28 melanoma and with HOP-62 NSCLC was above 100 µM throughout. Moreover, the TGI in the assay with SNB-78 CNS and in the assay on HCC-2998 colon was above 100 µM in each case.
Turning to `C=CC(=O)NC(N)=NC#N`, the TGI in the assay with HCT-15 colon was 258 µM; with HL-60(TB) leukemia it was > 66.3 µM and 327 µM; with M19-MEL melanoma, 278 µM; with SK-MEL-28 melanoma it was 261 µM; in the assay with HOP-62 NSCLC, 423 µM; in the assay on SNB-78 CNS, 399 µM. The TGI with HCC-2998 colon is 329 µM; in the assay on XF 498 CNS it was 313 µM. In addition, the GI50 in the assay on HL-60(TB) leukemia is 132 µM; in the assay with XF 498 CNS, 157 µM.
`Cc1ccc(S(=O)(=O)N2CCN(C=S)CC2)cc1`: the TGI in the assay with HCT-15 colon, with HL-60(TB) leukemia, in the assay on DMS 273 small cell lung, in the assay on M19-MEL melanoma, in the assay with SK-MEL-28 melanoma and in the assay on HOP-62 NSCLC was above 100 µM in each case. Moreover, the TGI with SNB-78 CNS and in the assay on HCC-2998 colon was above 100 µM in each case.
Regarding `OCC[N+]12CCCN1CCC2`, the TGI with HCT-15 colon, with HL-60(TB) leukemia, in the assay on DMS 273 small cell lung, in the assay with M19-MEL melanoma, in the assay with SK-MEL-28 melanoma and with HOP-62 NSCLC was above 100 µM each time. The TGI with SNB-78 CNS and in the assay with HCC-2998 colon was above 100 µM each time.
With `COc1cc2oc(-c3ccccc3)cc(=O)c2c(O)c1C`, the TGI with HCT-15 colon, in the assay with HL-60(TB) leukemia, with DMS 273 small cell lung, in the assay on M19-MEL melanoma, with SK-MEL-28 melanoma and in the assay on HOP-62 NSCLC was above 100 µM each time. In addition, the TGI in the assay with SNB-78 CNS and in the assay on HCC-2998 colon was above 100 µM throughout.
For the compound `COc1ccc(C(=O)c2c3cc(OC)c(OC)c(OC)c3cc[n+]2C)cc1`, the TGI in the assay on M19-MEL melanoma was above 100 µM; in the assay with SK-MEL-28 melanoma it was above 100 µM; with HOP-62 NSCLC, above 100 µM; with SNB-78 CNS, above 100 µM; with HCC-2998 colon it was 98.8 µM; in the assay with XF 498 CNS, 33.3 µM.
On to `COc1cc(CC2c3cc(OC)c(OC)cc3CCN2C)ccc1O` (configuration not stated), for which the TGI in the assay with HCT-15 colon, with SK-MEL-28 melanoma, in the assay with HOP-62 NSCLC, with SNB-78 CNS, with HCC-2998 colon and with XF 498 CNS was above 100 µM throughout.
For `Cc1[nH]c2ccccc2c1CC/C(=N\Nc1ccccc1)c1ccccc1`, the TGI in the assay with HCT-15 colon, in the assay on HL-60(TB) leukemia, with DMS 273 small cell lung, in the assay with SK-MEL-28 melanoma, with HOP-62 NSCLC and in the assay on SNB-78 CNS was above 100 µM throughout. Also, the TGI in the assay with HCC-2998 colon and in the assay on XF 498 CNS was above 100 µM each time.
As to `O=C(Cc1nc2ccccc2o1)C(=O)Nc1cccc(Cl)c1`, the TGI with HCT-15 colon, in the assay on HL-60(TB) leukemia, in the assay on M19-MEL melanoma, with SK-MEL-28 melanoma, with HOP-62 NSCLC and in the assay with SNB-78 CNS was above 100 µM in each case. Also, the TGI in the assay on HCC-2998 colon and with XF 498 CNS was above 100 µM each time.
`CCn1c2ccccc2c(=O)c2c(OC)ccc(OC)c21`: the TGI in the assay with HCT-15 colon was above 100 µM; in the assay with HL-60(TB) leukemia, above 82.4 µM; in the assay with DMS 273 small cell lung, above 100 µM; in the assay on M19-MEL melanoma, above 100 µM; in the assay on HOP-62 NSCLC, above 100 µM; in the assay on XF 498 CNS, above 100 µM.
Turning to `O=C1C(=C([O-])c2ccccc2)C(=O)c2ccccc21.O=C1C(=C([O-])c2ccccc2)C(=O)c2ccccc21.[Mn+2]`, the GI50 is 55.4 µM in the assay with HCT-15 colon; 30.5 µM with DMS 273 small cell lung; above 100 µM in the assay with M19-MEL melanoma; 93.8 µM in the assay on SK-MEL-28 melanoma; above 100 µM with HCC-2998 colon. Further, the TGI in the assay on HCT-15 colon, in the assay with DMS 273 small cell lung, in the assay with M19-MEL melanoma, with SK-MEL-28 melanoma and with HCC-2998 colon was above 100 µM each time.

Usually TGI stands for the concentration at which net growth stops. High values mean lower sensitivity of the cells, low ones greater sensitivity of the cells. In general, GI50 refers to the concentration that inhibits growth by half.
